According to patent publication US10499642B2, “Isoxazoline-substituted benzamides and analogues as insecticides” (SYNGENTA PARTICIPATIONS AG, priority 2015, dated 2019):
Like-named read-outs stand apart in the source and are kept apart here.

How the values were obtained:
Type in all cases: in vivo
Thrips tabaci = Thrips tabaci (onion thrips) sunflower leaf disc test; conditions: foliar, 144 h
Procedure: Thrips tabaci (Onion Thrips):
(§1) Sunflower leaf discs were placed on agar in 24-well microtiter plates and sprayed with aqueous test solutions prepared from 10′000 ppm DMSO stock solutions. After drying the leaf discs were infested with a thrips population of mixed ages. The samples were assessed for mortality 6 days after infestation.

Tetranychus urticae = Tetranychus urticae (two-spotted spider mite) bean leaf disc test; conditions: foliar, 192 h
Procedure: Tetranychus urticae (Two-Spotted Spider Mite):
as §1, with “Bean” for “Sunflower”, “discs” for “discs were placed”, “were” for “and”, “mite” for “thrips”, “on mixed population (mobile stages) 8” for “6”

Plutella xylostella = Plutella xylostella (diamond back moth) artificial diet test; conditions: 120 h, read-out: effect in at least one of the two categories (mortality or growth inhibition)
Procedure, shortened: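 Artificial diet treated with aqueous compound solutions made from DMSO stocks, dried, then infested with L2 larvae (10 to 15 per well). Mortality and growth inhibition scored versus untreated controls 5 days after infestation. Application rate 200 ppm.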

Myzus persicae = Myzus persicae (green peach aphid) sunflower leaf disc test; conditions: foliar, 144 h
Procedure: Myzus persicae (Green Peach Aphid):
Sunflower leaf discs were placed on agar in a 24-well microtiter plate and sprayed with test solutions at an application rate of 200 ppm. After drying, the leaf discs were infested with an aphid population of mixed ages. After an incubation period of 6 days after treatment, samples were checked for mortality. The following compounds gave at least 80% mortality of Myzus persicae: […]

Spodoptera littoralis = Spodoptera littoralis (Egyptian cotton leaf worm) cotton leaf disc test; conditions: foliar, 72 h, read-out: control (at least one of mortality, anti-feedant effect, and growth inhibition)
Procedure, shortened: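 Cotton leaf discs on agar were sprayed with aqueous dilutions of 10′000 ppm DMSO stocks, dried and infested with five L1 larvae. Mortality, anti-feedant effect and growth inhibition were scored against untreated samples 3 days after infestation. Control = any of these higher than untreated.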

Diabrotica Balteata = assay: Diabrotica balteata (corn root worm) maize sprout test; conditions: 96 h, read-out: effect in at least one of the two categories (mortality or growth inhibition)
Procedure, shortened: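 Maize sprouts on agar were sprayed with aqueous test solutions made from 10′000 ppm DMSO stocks, dried, then infested with 6 to 10 L2 larvae per well. Mortality and growth inhibition versus untreated samples were assessed 4 days after infestation; application rate 200 ppm.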

[1] = application rate 200 ppm, sunflower leaf discs, population of mixed ages, 6 days after infestation, read-out: mortality
[2] = application rate 200 ppm, bean leaf discs, mixed population (mobile stages), 8 days after infestation, read-out: mortality
[3] = application rate 200 ppm, artificial diet, L2 larvae, 5 days after infestation
[4] = application rate 200 ppm, sunflower leaf discs, population of mixed ages, 6 days after treatment, read-out: mortality
[5] = application rate 200 ppm, cotton leaf discs, L1 larvae, 3 days after infestation
[6] = application rate 200 ppm, maize sprouts, L2 larvae, 4 days after infestation

CC1=NOC(NC(=O)c2ccc(C3=NO[C@@](c4cc(Cl)c(F)c(Cl)c4)(C(F)(F)F)C3)cc2Br)C1 (stereo partly drawn) [Compound A036, 2-bromo-4-[(5S)-5-(3,5-dichloro-4-fluoro-phenyl)-5-(trifluoromethyl)-4H-isoxazol-3-yl]-N-(3-methyl-4,5-dihydroisoxazol-5-yl)benzamide]
≥ 80%: mortality at 200 ppm (Thrips tabaci) | mortality at 200 ppm (Tetranychus urticae) | percent effect (mortality or growth inhibition) at 200 ppm (Plutella xylostella) | mortality at 200 ppm (Myzus persicae) | percent control (mortality, anti-feedant effect or growth inhibition) at 200 ppm (Spodoptera littoralis) | percent effect (mortality or growth inhibition) at 200 ppm (Diabrotica Balteata)

CC1=NOC(NC(=O)c2ccc(C3=NO[C@@](c4cc(Cl)c(Cl)c(Cl)c4)(C(F)(F)F)C3)cc2Br)C1 (stereo partly drawn) [Compound A037, 2-bromo-N-(3-methyl-4,5-dihydroisoxazol-5-yl)-4-[(5S)-5-(3,4,5-trichlorophenyl)-5-(trifluoromethyl)-4H-isoxazol-3-yl]benzamide]
≥ 80%: mortality at 200 ppm (Thrips tabaci) | mortality at 200 ppm (Tetranychus urticae) | percent effect (mortality or growth inhibition) at 200 ppm (Plutella xylostella) | mortality at 200 ppm (Myzus persicae) | percent control (mortality, anti-feedant effect or growth inhibition) at 200 ppm (Spodoptera littoralis) | percent effect (mortality or growth inhibition) at 200 ppm (Diabrotica Balteata)

CC1=NOC(NC(=O)c2ccc(C3=NO[C@@](c4cc(Cl)c(F)c(Cl)c4)(C(F)(F)F)C3)cc2Cl)C1 (stereo partly drawn) [Compound A038, 2-chloro-4-[(5S)-5-(3,5-dichloro-4-fluoro-phenyl)-5-(trifluoromethyl)-4H-isoxazol-3-yl]-N-(3-methyl-4,5-dihydroisoxazol-5-yl)benzamide]
≥ 80%: mortality at 200 ppm (Thrips tabaci) | mortality at 200 ppm (Tetranychus urticae) | percent effect (mortality or growth inhibition) at 200 ppm (Plutella xylostella) | mortality at 200 ppm (Myzus persicae) | percent control (mortality, anti-feedant effect or growth inhibition) at 200 ppm (Spodoptera littoralis) | percent effect (mortality or growth inhibition) at 200 ppm (Diabrotica Balteata)

CC1=NOC(N(C=O)C(=O)c2ccc(C3=NO[C@@](c4cc(Cl)cc(C(F)(F)F)c4)(C(F)(F)F)C3)cc2C)C1 (stereo partly drawn) [Compound A039, 4-[(5S)-5-[3-chloro-5-(trifluoromethyl)phenyl]-5-(trifluoromethyl)-4H-isoxazol-3-yl]-N-formyl-2-methyl-N-(3-methyl-4,5-dihydroisoxazol-5-yl)benzamide]
≥ 80%: mortality at 200 ppm (Thrips tabaci) | mortality at 200 ppm (Tetranychus urticae) | percent effect (mortality or growth inhibition) at 200 ppm (Plutella xylostella) | mortality at 200 ppm (Myzus persicae) | percent control (mortality, anti-feedant effect or growth inhibition) at 200 ppm (Spodoptera littoralis) | percent effect (mortality or growth inhibition) at 200 ppm (Diabrotica Balteata)

CC1=NOC(N(C=O)C(=O)c2ccc(C3=NO[C@@](c4cc(Br)cc(C(F)(F)F)c4)(C(F)(F)F)C3)cc2C)C1 (stereo partly drawn) [Compound A040, 4-[(5S)-5-[3-bromo-5-(trifluoromethyl)phenyl]-5-(trifluoromethyl)-4H-isoxazol-3-yl]-N-formyl-2-methyl-N-(3-methyl-4,5-dihydroisoxazol-5-yl)benzamide]
≥ 80%: mortality at 200 ppm (Thrips tabaci; [1]) | mortality at 200 ppm (Tetranychus urticae; [2]) | percent effect (mortality or growth inhibition) at 200 ppm (Plutella xylostella; [3]) | mortality at 200 ppm (Myzus persicae; [4]) | percent control (mortality, anti-feedant effect or growth inhibition) at 200 ppm (Spodoptera littoralis; [5]) | percent effect (mortality or growth inhibition) at 200 ppm (Diabrotica Balteata; [6])

COC1=NOC(NC(=O)c2ccc(C3=NO[C@@](c4cc(Cl)c(Cl)c(Cl)c4)(C(F)(F)F)C3)cc2C)C1 (stereo partly drawn) [Compound A041]
≥ 80%: mortality at 200 ppm (Thrips tabaci) | mortality at 200 ppm (Tetranychus urticae) | percent effect (mortality or growth inhibition) at 200 ppm (Plutella xylostella) | mortality at 200 ppm (Myzus persicae) | percent control (mortality, anti-feedant effect or growth inhibition) at 200 ppm (Spodoptera littoralis) | percent effect (mortality or growth inhibition) at 200 ppm (Diabrotica Balteata)

COC1=NOC(NC(=O)c2ccc(C3=NO[C@@](c4cc(Cl)cc(C(F)(F)F)c4)(C(F)(F)F)C3)cc2C)C1 (stereo partly drawn) [Compound A042]
≥ 80%: mortality at 200 ppm (Thrips tabaci) | mortality at 200 ppm (Tetranychus urticae) | percent effect (mortality or growth inhibition) at 200 ppm (Plutella xylostella) | mortality at 200 ppm (Myzus persicae) | percent control (mortality, anti-feedant effect or growth inhibition) at 200 ppm (Spodoptera littoralis) | percent effect (mortality or growth inhibition) at 200 ppm (Diabrotica Balteata)

COC1=NOC(NC(=O)c2ccc(C3=NO[C@@](c4cc(Cl)c(Cl)c(Cl)c4)(C(F)(F)F)C3)cc2Cl)C1 (stereo partly drawn) [Compound A043]
≥ 80%: mortality at 200 ppm (Thrips tabaci) | mortality at 200 ppm (Tetranychus urticae) | percent effect (mortality or growth inhibition) at 200 ppm (Plutella xylostella) | mortality at 200 ppm (Myzus persicae) | percent control (mortality, anti-feedant effect or growth inhibition) at 200 ppm (Spodoptera littoralis) | percent effect (mortality or growth inhibition) at 200 ppm (Diabrotica Balteata)

COC1=NOC(NC(=O)c2ccc(C3=NO[C@@](c4cc(Br)cc(C(F)(F)F)c4)(C(F)(F)F)C3)cc2C)C1 (stereo partly drawn) [Compound A044]
≥ 80%: mortality at 200 ppm (Thrips tabaci; [1]) | mortality at 200 ppm (Tetranychus urticae; [2]) | percent effect (mortality or growth inhibition) at 200 ppm (Plutella xylostella; [3]) | mortality at 200 ppm (Myzus persicae; [4]) | percent control (mortality, anti-feedant effect or growth inhibition) at 200 ppm (Spodoptera littoralis; [5]) | percent effect (mortality or growth inhibition) at 200 ppm (Diabrotica Balteata; [6])

COC1=NOC(NC(=O)c2ccc(C3=NO[C@@](c4cc(Cl)c(F)c(Cl)c4)(C(F)(F)F)C3)cc2Cl)C1 (stereo partly drawn) [Compound A045]
≥ 80%: mortality at 200 ppm (Thrips tabaci) | mortality at 200 ppm (Tetranychus urticae) | percent effect (mortality or growth inhibition) at 200 ppm (Plutella xylostella) | mortality at 200 ppm (Myzus persicae) | percent control (mortality, anti-feedant effect or growth inhibition) at 200 ppm (Spodoptera littoralis) | percent effect (mortality or growth inhibition) at 200 ppm (Diabrotica Balteata)

CCOC1=NOC(NC(=O)c2ccc(C3=NO[C@@](c4cc(Cl)c(F)c(Cl)c4)(C(F)(F)F)C3)cc2C)C1 (stereo partly drawn) [Compound A046]
≥ 80%: mortality at 200 ppm (Thrips tabaci) | mortality at 200 ppm (Tetranychus urticae) | percent effect (mortality or growth inhibition) at 200 ppm (Plutella xylostella) | mortality at 200 ppm (Myzus persicae) | percent control (mortality, anti-feedant effect or growth inhibition) at 200 ppm (Spodoptera littoralis) | percent effect (mortality or growth inhibition) at 200 ppm (Diabrotica Balteata)

CCOC1=NOC(NC(=O)c2ccc(C3=NO[C@@](c4cc(Cl)cc(C(F)(F)F)c4)(C(F)(F)F)C3)cc2C)C1 (stereo partly drawn) [Compound A047]
≥ 80%: mortality at 200 ppm (Thrips tabaci) | mortality at 200 ppm (Tetranychus urticae) | percent effect (mortality or growth inhibition) at 200 ppm (Plutella xylostella) | mortality at 200 ppm (Myzus persicae) | percent control (mortality, anti-feedant effect or growth inhibition) at 200 ppm (Spodoptera littoralis) | percent effect (mortality or growth inhibition) at 200 ppm (Diabrotica Balteata)

CSC1=NOC(NC(=O)c2ccc(C3=NO[C@@](c4cc(Cl)cc(C(F)(F)F)c4)(C(F)(F)F)C3)cc2C)C1 (stereo partly drawn) [Compound A050]
≥ 80%: mortality at 200 ppm (Thrips tabaci) | mortality at 200 ppm (Tetranychus urticae) | percent effect (mortality or growth inhibition) at 200 ppm (Plutella xylostella) | mortality at 200 ppm (Myzus persicae) | percent control (mortality, anti-feedant effect or growth inhibition) at 200 ppm (Spodoptera littoralis) | percent effect (mortality or growth inhibition) at 200 ppm (Diabrotica Balteata)

CCSC1=NOC(NC(=O)c2ccc(C3=NO[C@@](c4cc(Cl)cc(C(F)(F)F)c4)(C(F)(F)F)C3)cc2C)C1 (stereo partly drawn) [Compound A051]
≥ 80%: mortality at 200 ppm (Thrips tabaci) | mortality at 200 ppm (Tetranychus urticae) | percent effect (mortality or growth inhibition) at 200 ppm (Plutella xylostella) | mortality at 200 ppm (Myzus persicae) | percent control (mortality, anti-feedant effect or growth inhibition) at 200 ppm (Spodoptera littoralis) | percent effect (mortality or growth inhibition) at 200 ppm (Diabrotica Balteata)

CCSC1=NOC(NC(=O)c2ccc(C3=NO[C@@](c4cc(Cl)c(Cl)c(Cl)c4)(C(F)(F)F)C3)cc2C)C1 (stereo partly drawn) [Compound A052]
≥ 80%: mortality at 200 ppm (Thrips tabaci) | mortality at 200 ppm (Tetranychus urticae) | percent effect (mortality or growth inhibition) at 200 ppm (Plutella xylostella) | mortality at 200 ppm (Myzus persicae) | percent control (mortality, anti-feedant effect or growth inhibition) at 200 ppm (Spodoptera littoralis) | percent effect (mortality or growth inhibition) at 200 ppm (Diabrotica Balteata)

COC1=NOC(NC(=O)c2ccc(C3=NO[C@@](c4cc(Cl)cc(Cl)c4)(C(F)(F)F)C3)cc2C)C1 (stereo partly drawn) [Compound A054]
≥ 80%: mortality at 200 ppm (Thrips tabaci) | mortality at 200 ppm (Tetranychus urticae) | percent effect (mortality or growth inhibition) at 200 ppm (Plutella xylostella) | mortality at 200 ppm (Myzus persicae) | percent control (mortality, anti-feedant effect or growth inhibition) at 200 ppm (Spodoptera littoralis) | percent effect (mortality or growth inhibition) at 200 ppm (Diabrotica Balteata)
